Results on 25 molecules are retold here after patent EP3315495A1, “N,N' -[…], N,N' -DIAR[…] N,N' -DIARY[…] FOR USE IN TREATMENT AND PREVENTION OF INFLAMMATORY DISEASE” (Universität Innsbruck, priority 2016, dated 2018).

A word on the inhibition: it is how much of the control response was suppressed. For orientation: pIC50 means −log10 of the IC50, conventionally taken in molar units.

The target in one assay is T1, FLAP (Homo sapiens, UniProt P20292).
T1 sequence (P20292 1-161): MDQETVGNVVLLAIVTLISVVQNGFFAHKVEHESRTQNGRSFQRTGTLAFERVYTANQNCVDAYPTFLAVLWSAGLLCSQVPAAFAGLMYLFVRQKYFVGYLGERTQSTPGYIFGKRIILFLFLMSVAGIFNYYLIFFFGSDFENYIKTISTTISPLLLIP
The following applies: active = inhibition of product formation in cells without 5-LOX activity in the cell-free assay.

The test system of assay [1] is 5-LOX product formation in PMNL. Nature of the assay: 5-LOX product formation in PMNL stimulated with A23187 (cell-based). Also noted: species or system human. The following applies: for Effect on 5-LOX product formation in PMNL: result in words; for inhibition at 1 µM: read-out: Effect on 5-LOX product formation in PMNL, % inhibition. The method, then: Briefly, first a cell-based assay allows to determine the inhibition of the 5-LOX product biosynthesis. The cell suspension contained human neutrophils (PMNL) or monocytes, wherein the cells were isolated from buffy coats obtained from healthy donors pooled by gender. An aliquot cell suspension was incubated with the candidate compound for 15 min at 37 °C. The cells are treated with calcium ionophore A23187 to stimulate 5-LOX product formation for further 10 min (37 °C), optionally in presence of various concentrations of AA. The reaction was stopped with 1 mL methanol on ice.
In both assays, product quantification was conducted with RP-HPLC and UV detection after solid phase extraction and addition of 200 ng prostaglandin B1 as internal standard.

Assay [2] deals with T2, sEH (Homo sapiens, UniProt P34913).
T2 sequence (P34913 1-555): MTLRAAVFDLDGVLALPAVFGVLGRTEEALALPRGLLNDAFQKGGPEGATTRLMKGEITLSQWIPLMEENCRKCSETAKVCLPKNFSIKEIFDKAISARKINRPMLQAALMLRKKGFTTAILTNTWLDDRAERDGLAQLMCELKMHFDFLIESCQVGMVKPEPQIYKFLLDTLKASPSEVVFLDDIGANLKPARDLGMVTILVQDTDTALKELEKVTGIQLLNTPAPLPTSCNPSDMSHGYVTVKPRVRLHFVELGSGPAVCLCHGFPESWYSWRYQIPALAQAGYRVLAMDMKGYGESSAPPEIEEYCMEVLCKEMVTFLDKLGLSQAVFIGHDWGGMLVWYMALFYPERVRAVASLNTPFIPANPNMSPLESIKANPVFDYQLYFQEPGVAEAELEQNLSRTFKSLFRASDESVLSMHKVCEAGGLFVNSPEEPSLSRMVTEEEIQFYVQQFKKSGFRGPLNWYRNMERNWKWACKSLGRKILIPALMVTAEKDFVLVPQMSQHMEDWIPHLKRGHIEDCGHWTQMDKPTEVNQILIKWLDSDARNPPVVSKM
The following applies: result in words.
Description: (§1) In brief, sEH was expressed in transfected Sf9-cells. Isolation of sEH from the cell pellet was conducted with a benzylthiosepharose matrix. […] The reaction was stopped with ZnSO4 (0.2 M) after 60 min incubation. […] Inhibitors were tested for self fluorescence. Positive controls were AUDA (12-(3-adamantan-1-yl-ureido)dodecanacid) and DCU (N,N'-dicyclohexylurea) at 10 µM.

The target of assay [3] is T2, sEH. Nature of the assay: biochemical. Conditions: for inhibition at 0.1 µM / inhibition at 1 µM: read-out: Effect on sEH activity, % inhibition.
Description: as §1
The subject of assay [4] is leukotriene mediated peritonitis. Nature of the assay: Zymosan-induced peritonitis model in mice. Conditions: intraperitoneal, 30 min prior to zymosan. In kind it is in vivo, CD1 male mice. The method, then: Compound I-12 was evaluated in vivo in a peritonitis model in mice. The experimental protocols were approved by the Animal Care Committee of the University of Naples Federico II, in compliance with Italian regulations on protection of animals used for experimental and other scientific purpose (Ministerial Decree 116/92) as well as with the European Economic Community regulations (Official Journal of E.C. L 358/1 12/18/1986); protocol number: 2014/0018760 27th February 2014. CD1 male mice with an age of six to eight weeks were investigated. The leukotriene mediated peritonitis is induced by injection of 1 mg zymosan in 50 µl saline solution. 30 min prior to induction, the candidate compound was applied as intraperitoneal injection in different concentrations as well as DMSO as negative control and positive controls (MK886, zileuton). Results are given in Table 3, wherein […] and LTB 4 levels are measured as well as vascular permeability (VP) and the cell recruitment in the peritoneal cavity (Cell Rec). Table 3: Results from an in vivo study with a mouse peritonitis model
In Table 3, values in percent indicate the percent inhibition in respect to the vehicle control. Statistical significance is determined via ANOVA Bonferroni, wherein * indicates p<0.05; ** indicates p<0.01; *** indicates p<0.001 vs. vehicle. N indicates the number of investigated mice.

pIC50: −log10 of the molar value. Entries after “also recorded” stand apart in the source; their conditions may differ. Marks after values point to notes of the source that are not given here.

Description for FLAP: The enzyme was preincubated for 15 min with the potential inhibitor on ice and subsequently exposed to 2 mM CaCl2 and 20 µM AA for 10 min at 37°C.
Effect on 5-LOX product formation and sEH activity is determined as described above. In case of observed effect on 5-LOX product formation in the cellular assay, 5-LOX activity was investigated with isolated 5-LOX.

With `CCn1c(COc2ccc3ccccc3c2)nc2ccccc21` [Compound I12-1, reference compound], at FLAP, the “Effect on FLAP activity” value is “inactive”. For the same molecule, the “Effect on 5-LOX product formation in PMNL” value (from here on “Effect … in PMNL”) in assay [1] is “inactive”. Besides, the “Effect on sEH activity” value at sEH [2] is “inactive”.
In the case of `Cc1cc(OCc2nc3ccccc3s2)ccc1NC(=O)NC1CCCCC1` [Compound I12-2, N-[4-(2-benzothiazolylmethoxy)-2-methylphenyl]-N'-cyclohexyl-urea, reference compound], at FLAP, the “Effect on FLAP activity” value is “did not show an effect; also recorded: inactive”. Moreover, the “Effect … in PMNL” value in assay [1] was “did not show an effect; also recorded: inactive”. Also, the inhibition at 0.1 µM on sEH [3] stood at 75%.
Turning to `Cc1cccc(NC(=O)Nc2ccc(OCc3nc4ccccc4s3)cc2C)c1` [Compound I12-3], the “Effect on FLAP activity” value at FLAP is “active”. Besides, the inhibition at 1 µM in assay [1] (Homo sapiens, PMNL) is 100%. In addition, the inhibition at 0.1 µM on sEH [3] was determined as 55%.
With `Cc1cc(OCc2nc3ccccc3s2)ccc1NC(=O)Nc1cccc2ccccc12` [Compound I12-4], the “Effect on FLAP activity” value at FLAP is reported as “active”. In addition, the inhibition at 1 µM in assay [1] (Homo sapiens, PMNL) was 70%. At sEH [2], the “Effect on sEH activity” value is “inactive”.
`Cc1cc(OCc2nc3ccccc3s2)ccc1NC(=O)c1cccc(F)c1` [Compound I12-5, reference compound]: the “Effect on FLAP activity” value at FLAP is “inactive”. Moreover, the “Effect … in PMNL” value in assay [1] was “inactive”. Besides, at sEH [2], the “Effect on sEH activity” value was “inactive”.
For `Cc1cc(OCc2nc3ccccc3s2)ccc1NC(=O)COc1ccc(Cl)cc1Cl` [Compound I12-6, reference compound], the “Effect on FLAP activity” value on FLAP was “inactive”. The “Effect … in PMNL” value in assay [1] was “inactive”. Further, at sEH [2], the “Effect on sEH activity” value is “inactive”.
Regarding `CCNC(=O)Nc1ccc(OCc2nc3ccccc3s2)cc1C` [Compound I12-7, reference compound], the “Effect on FLAP activity” value at FLAP was “inactive”. The “Effect … in PMNL” value in assay [1] was “inactive”. Besides, the “Effect on sEH activity” value on sEH [2] is “inactive”.
As for `COc1cc(/C=N/NC(=O)c2ccc(CSc3nc4ccccc4s3)o2)cc(Br)c1O` [Compound I12-8, reference compound], the “Effect on FLAP activity” value at FLAP was “inactive”. In addition, the “Effect … in PMNL” value in assay [1] was “inactive”. Further, at sEH [3], the inhibition at 0.1 µM came out at 30%.
As to `CSc1ccc(N/N=C/c2nc3ccccc3s2)cc1` [Compound I12-9, reference compound], the “Effect on FLAP activity” value at FLAP is “inactive”. Besides, the “Effect … in PMNL” value in assay [1] is “inactive”. Moreover, on sEH [2], the “Effect on sEH activity” value was “inactive”.
`CC(C)c1ccc(OCc2nc3ccccc3[nH]2)cc1` [Compound I12-10, reference compound]: the “Effect on FLAP activity” value on FLAP is “inactive”. Further, the “Effect … in PMNL” value in assay [1] was “inactive”. Further, the “Effect on sEH activity” value on sEH [2] was “inactive”.
For `Cc1cccc(OCC(=O)Nc2ccc(OCc3nc4ccccc4s3)cc2C)c1` [Compound I12-11, reference compound], on FLAP, the “Effect on FLAP activity” value is recorded as “active”. Further, in assay [1] (Homo sapiens, PMNL), the inhibition at 1 µM worked out at 97%. In addition, the “Effect on sEH activity” value on sEH [2] was “did not show sEH inhibition; also recorded: inactive”.
Take `Cc1cc(OCc2nc3ccccc3s2)ccc1NC(=O)c1ccc(Cl)cc1` [Compound I12-12, reference compound]: on FLAP, the “Effect on FLAP activity” value is “inactive”. In addition, in assay [1], the “Effect … in PMNL” value is “inactive”. Also, the “Effect on sEH activity” value at sEH [2] is “inactive”.
Turning to `Cc1cccc(OCc2nc3ccccc3s2)c1C` [Compound I12-13, reference compound], the “Effect on FLAP activity” value on FLAP is “inactive”. For the same molecule, the “Effect … in PMNL” value in assay [1] was “inactive”. Moreover, the “Effect on sEH activity” value at sEH [2] was “inactive”.
On to `COc1cccc(NC(=O)Nc2ccc(CCc3nc4ccccc4[nH]3)cc2)c1` [Compound L1], for which the “Effect on FLAP activity” value at FLAP is “inactive”. The “Effect … in PMNL” value in assay [1] was “inactive”. Moreover, the inhibition at 0.1 µM at sEH [3] came to 30%.
Regarding `O=C(Nc1ccc(CCc2nc3ccccc3[nH]2)cc1)Nc1cccc(Cl)c1` [Compound L2], the “Effect on FLAP activity” value at FLAP was “inactive”. In addition, in assay [1], the “Effect … in PMNL” value was “inactive”. At sEH [3], the inhibition at 0.1 µM was determined as 50%.
Regarding `O=C(Nc1ccccc1)Nc1ccc(CCc2nc3ccccc3[nH]2)cc1` [Compound L3], the “Effect on FLAP activity” value on FLAP was “inactive”. In addition, in assay [1], the “Effect … in PMNL” value is “inactive”. For the same molecule, the inhibition at 0.1 µM at sEH [3] was found to be 30%.
Take `O=C(Nc1ccc(Cl)cc1)Nc1ccc(CCc2nc3ccccc3[nH]2)cc1` [Compound L4]: at FLAP, the “Effect on FLAP activity” value is “inactive”. Besides, the “Effect … in PMNL” value in assay [1] is “inactive”. The inhibition at 0.1 µM at sEH [3] was determined as 78%.
Regarding `COc1ccc(NC(=O)Nc2ccc(CCc3nc4ccccc4[nH]3)cc2)cc1` [Compound L5], the “Effect on FLAP activity” value at FLAP is “inactive”. Besides, the “Effect … in PMNL” value in assay [1] was “inactive”. Moreover, the inhibition at 0.1 µM on sEH [3] was found to be 50%.
Turning to `O=C(Nc1ccc(F)cc1)Nc1ccc(CCc2nc3ccccc3[nH]2)cc1` [Compound L6], the “Effect on FLAP activity” value at FLAP is “inactive”. Also, the “Effect … in PMNL” value in assay [1] is “inactive”. Further, the inhibition at 0.1 µM at sEH [3] amounted to 55%.
For `Cn1c(CCc2ccc(NC(=O)Nc3cccc(Cl)c3)cc2)nc2ccccc21` [Compound L8], on FLAP, the “Effect on FLAP activity” value is “inactive”. Further, in assay [1], the “Effect … in PMNL” value was “inactive”. Further, the inhibition at 0.1 µM at sEH [3] amounted to 65%.
Consider `Cc1cc(OCc2nc3ccccc3[nH]2)ccc1NC(=O)Nc1ccc(Cl)c(Cl)c1` [EZ14, N-[4-(1H-Benzimidazol-2-ylmethoxy)-2-methylphenyl]-N'-(3,4-dichlorophenyl)-urea], for which the negative logarithm of the IC50 (pIC50) in assay [1] (Homo sapiens, PMNL, read-out: Effect on 5-LOX product formation in PMNL, IC50) was 6.11; on sEH [3], 7.26.
On to `CC(C)c1ccc2c(c1)c(SC(C)(C)C)c(CC(C)(C)C(=O)O)n2Cc1ccc(Cl)cc1` [MK886, reference compound], for which, in assay [4] (1 mg), the “Cell Rec (cell recruitment in the peritoneal cavity)” value is recorded as 4.54±0.326 10^6/ml; the “Cell Rec, percent inhibition in respect to the vehicle control” value is recorded as 41%***; the LTB4 worked out at 258 ± 48 pg/mL; the “LTB4, percent inhibition in respect to the vehicle control” value turned out to be 63%**. In assay [4] (1 mg), the LTC4 was found to be 24.2 ± 2.98 ng/mL and the “LTC4, percent inhibition in respect to the vehicle control” value was 73%***. Besides, in assay [4] (3 mg), the “VP (vascular permeability)” value is 0.303±0.018 abs 610 nm and the “VP, percent inhibition in respect to the vehicle control” value was 51%.
Turning to `Cc1cc(OCc2nc3ccccc3o2)ccc1NC(=O)Nc1ccc(Cl)c(Cl)c1` [SE04, N-[4-(2-Benzoxazolylmethoxy)-2-methylphenyl]-N'-(3,4-dichlorophenyl)-urea], the inhibition at 1 µM in assay [1] (Homo sapiens, PMNL) is approximately 85%; at sEH [3], approximately 87%.
Consider `O=C(Nc1ccc(OCc2nc3ccccc3o2)cc1)Nc1ccc(Cl)c(Cl)c1` [TS04], for which the “Effect on FLAP activity” value on FLAP was “inactive”. Also, the “Effect … in PMNL” value in assay [1] was “inactive”. For the same molecule, the inhibition at 1 µM at sEH [3] was approximately 96%.
On to `CC(c1cc2ccccc2s1)N(O)C(N)=O` (stereo not drawn) [ZIL, zileuton, reference compound], for which, in assay [4] (10 mg), the LTC4 was found to be 56.5 ± 4.58 ng/mL; the “LTC4, percent inhibition in respect to the vehicle control” value is 36%*; the “VP (vascular permeability)” value came out at 0.639±0.104 abs 610 nm.
